According to ChEMBL document CHEMBL1126135, “N-(1-oxododecyl)-4 alpha,10-dimethyl-8-aza-trans-decal-3 beta-ol: a potent competitive inhibitor of 2,3-oxidosqualene cyclase” (J Med Chem, 1992):

Legend:
HepG2 = test: Compound was tested for inhibition of cholesterol biosynthesis in HepG2 cells from [14C]- acetate; format: functional, cell-based; conditions: Homo sapiens
Lanosterol synthase = molecular target: T1, Lanosterol synthase (Rattus norvegicus, UniProt P48450); test: Inhibitory activity against Oxidosqualene-lanosterol cyclase enzyme obtained from rat liver; d = in a microsomal assay fails to inhibit OSC (Oxidosqualene cyclase); format: microsomes, Microsome
T1 sequence (P48450 whole entry): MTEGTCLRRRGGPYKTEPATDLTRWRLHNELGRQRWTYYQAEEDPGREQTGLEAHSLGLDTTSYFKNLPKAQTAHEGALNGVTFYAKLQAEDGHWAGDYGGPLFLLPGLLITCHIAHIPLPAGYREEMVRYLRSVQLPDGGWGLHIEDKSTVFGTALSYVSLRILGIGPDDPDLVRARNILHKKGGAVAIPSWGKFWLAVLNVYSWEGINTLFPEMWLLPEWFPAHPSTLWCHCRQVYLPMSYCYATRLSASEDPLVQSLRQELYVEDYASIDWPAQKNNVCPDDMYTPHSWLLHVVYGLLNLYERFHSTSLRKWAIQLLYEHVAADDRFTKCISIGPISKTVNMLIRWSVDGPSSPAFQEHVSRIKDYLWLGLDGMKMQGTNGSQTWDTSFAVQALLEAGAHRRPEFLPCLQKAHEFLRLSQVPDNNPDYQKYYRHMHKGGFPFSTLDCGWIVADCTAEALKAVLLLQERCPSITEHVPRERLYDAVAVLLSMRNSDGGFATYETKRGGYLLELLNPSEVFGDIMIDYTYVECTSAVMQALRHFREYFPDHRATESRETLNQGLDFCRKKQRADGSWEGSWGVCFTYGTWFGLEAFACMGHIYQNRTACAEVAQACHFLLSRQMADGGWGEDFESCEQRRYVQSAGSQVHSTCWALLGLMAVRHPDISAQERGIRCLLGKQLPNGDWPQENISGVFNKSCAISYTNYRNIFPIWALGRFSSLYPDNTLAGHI

Compound | IC50 (HepG2) [nM] | IC50 (Lanosterol synthase)
CCCCCCCCCCCC[S+]([O-])N1CC[C@H]2[C@H](C)[C@@H](O)CC[C@]2(C)C1 (stereo not given in full) | 2800 | –
CCCCCCCCCCCCS(=O)(=O)N1CC[C@H]2[C@H](C)[C@@H](O)CC[C@]2(C)C1 | 52000 | –
CCCCCCCCCCCC(=S)N1CC[C@H]2[C@H](C)[C@@H](O)CC[C@]2(C)C1 | 2000 | –
CCCCCCCCCCCC(=O)N1CC[C@H]2[C@H](C)[C@@H](O)CC[C@]2(C)C1 | 700 | –
CC(C)CCCC(C)CCCC(C)N1CC[C@H]2[C@H](C)[C@@H](O)CC[C@]2(C)C1 (stereo not given in full) | 70 | –
CCCCCCCCCCCCN1CC[C@H]2[C@H](C)[C@@H](O)CC[C@]2(C)C1 | 10 | –
CC1(C)[C@@H](O)CC[C@]2(C)CCCC[C@@H]12 | 28000 | –
CC(=O)N1CC[C@H]2[C@H](C)[C@@H](O)CC[C@]2(C)C1 | > 100000 | –
C[C@@H]1[C@@H](O)CC[C@]2(C)CNCC[C@@H]12 | 19000 | No inhibition
